Test [1] deals with T1, Histamine H4 receptor (Homo sapiens, UniProt Q9H3N8). The test is described as follows: Intrinsic activity at human H4 receptor expressed in insect Sf9 cells co-expressing RGS19 fusion protein and Gialpha2, Gbeta1gamma2 assessed as gamma[32P]GTP binding at 10 uM by liquid scintillation counting relative to histamine.
Test [2] has as its target T2, Histamine H1 receptor (Homo sapiens, UniProt P35367). The test is described as follows: Intrinsic activity at human H1 receptor expressed in insect Sf9 cells co-expressing RGS4 assessed as gamma[32P]GTP binding at 10 uM by liquid scintillation counting relative to histamine.
In test [3] the target is T1, Histamine H4 receptor. Briefly: Agonist activity at human H4 receptor expressed in insect Sf9 cells co-expressing RGS19 fusion protein and Gialpha2, Gbeta1gamma2 assessed as gamma[32P]GTP binding by liquid scintillation counting.
Test [4] has as its target Histamine H2 receptor (Cavia porcellus) (UniProt P47747). The test is described as follows: Agonist activity at histamine H2 receptor in guinea pig atrium assessed as maximal increase in heart rate relative to histamine. The test is classed as functional, tissue-based. As to conditions: Cardiac atrium.
Test [5] deals with T3, Histamine H2 receptor (Homo sapiens, UniProt P25021). The test is described as follows: Agonist activity at human H2 receptor expressed in insect Sf9 cells co-expressing GsalphaS fusion protein assessed as gamma[32P]GTP binding by liquid scintillation counting.
T3 sequence (P25021 whole entry, the tested form may be a part): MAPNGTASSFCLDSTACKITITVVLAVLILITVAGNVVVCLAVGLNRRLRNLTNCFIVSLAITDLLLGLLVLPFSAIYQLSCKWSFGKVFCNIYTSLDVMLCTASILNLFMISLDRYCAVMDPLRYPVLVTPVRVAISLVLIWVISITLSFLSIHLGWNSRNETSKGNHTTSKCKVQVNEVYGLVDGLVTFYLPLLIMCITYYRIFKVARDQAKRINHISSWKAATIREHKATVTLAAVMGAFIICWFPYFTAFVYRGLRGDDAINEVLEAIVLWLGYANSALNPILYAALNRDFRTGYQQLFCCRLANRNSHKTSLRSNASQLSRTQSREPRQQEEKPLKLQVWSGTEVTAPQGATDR
Test [6] deals with T2, Histamine H1 receptor. Briefly: Antagonist activity at human H1 receptor expressed in insect Sf9 cells co-expressing RGS4 assessed as inhibition of histamine-induced gamma[32P]GTP binding by liquid scintillation counting.
For test [7], the target named is T4, Histamine H2 receptor (Cavia porcellus, UniProt P47747). The test is described as follows: Agonist activity at histamine H2 receptor in guinea pig atrium assessed as increase in heart rate. The test is classed as functional, tissue-based, Cardiac atrium.
T4 sequence (P47747 whole entry): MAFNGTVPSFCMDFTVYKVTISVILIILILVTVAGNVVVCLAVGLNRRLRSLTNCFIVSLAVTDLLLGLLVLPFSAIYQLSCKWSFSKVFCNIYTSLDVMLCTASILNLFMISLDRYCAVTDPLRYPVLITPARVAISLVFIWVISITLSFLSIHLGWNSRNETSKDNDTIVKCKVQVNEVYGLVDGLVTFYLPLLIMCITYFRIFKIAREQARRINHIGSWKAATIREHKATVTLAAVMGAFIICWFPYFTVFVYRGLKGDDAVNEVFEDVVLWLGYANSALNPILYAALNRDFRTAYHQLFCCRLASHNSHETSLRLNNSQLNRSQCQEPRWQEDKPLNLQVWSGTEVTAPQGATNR
Test [8] addresses T5, Histamine H3 receptor (Homo sapiens, UniProt Q9Y5N1). Briefly: Antagonist activity at human H3 receptor expressed in insect Sf9 cells co-expressing Gialpha2, Gbeta1gamma2 and RGS4 assessed as inhibition of histamine-induced gamma[32P]GTP binding by liquid scintillation counting.
The target of test [9] is T3, Histamine H2 receptor. Briefly: Intrinsic activity at human H2 receptor expressed in insect Sf9 cells co-expressing GsalphaS fusion protein assessed as gamma[32P]GTP binding at 10 uM by liquid scintillation counting relative to histamine.
Test [10] has as its target Histamine H1 receptor (Cavia porcellus, UniProt P31389). Briefly: Antagonist activity at histamine H1 receptor in guinea pig ileum assessed as inhibition of histamine-induced contractions. Type of test: functional, tissue-based. As to conditions: read-out: pA2 (converted).
Test [11] concerns the target T5, Histamine H3 receptor. The test is described as follows: Intrinsic activity at human H3 receptor expressed in insect Sf9 cells co-expressing Gialpha2, Gbeta1gamma2 and RGS4 assessed as gamma[32P]GTP binding at 10 uM by liquid scintillation counting relative to histamine.
Test [12] has as its target T4, Histamine H2 receptor. The test is described as follows: Antagonist activity at histamine H2 receptor in guinea pig right atrium assessed as inhibition of histamine-induced increase in heart rate. The test is classed as functional, tissue-based, Cardiac atrium. To be noted: read-out: pA2 (converted).
The target in test [13] is T5, Histamine H3 receptor. The test is described as follows: Agonist activity at human H3 receptor expressed in insect Sf9 cells co-expressing Gialpha2, Gbeta1gamma2 and RGS4 assessed as gamma[32P]GTP binding by liquid scintillation counting.
In test [14] the target is T2, Histamine H1 receptor. The test is described as follows: Agonist activity at human H1 receptor expressed in insect Sf9 cells co-expressing RGS4 assessed as gamma[32P]GTP binding by liquid scintillation counting.
Test [15] concerns the target T1, Histamine H4 receptor. The test is described as follows: Antagonist activity at human H4 receptor expressed in insect Sf9 cells co-expressing RGS19 fusion protein and Gialpha2, Gbeta1gamma2 assessed as inhibition of histamine-induced gamma[32P]GTP binding by liquid scintillation counting.
The species named for test [16] is Homo sapiens. Briefly: Selectivity ratio of EC50 for human H2R to EC50 for human H4R.
The species named for test [17] is Homo sapiens. Briefly: Selectivity ratio of EC50 for human H1R to EC50 for human H4R.

Where only a bound is given, the exact number is not on record here.

Chain of Histamine H2 receptor (Cavia porcellus) (P47747 whole entry, the tested form may be a part): as the sequence (P47747 whole entry) above
T2 sequence (P35367 whole entry, the tested form may be a part): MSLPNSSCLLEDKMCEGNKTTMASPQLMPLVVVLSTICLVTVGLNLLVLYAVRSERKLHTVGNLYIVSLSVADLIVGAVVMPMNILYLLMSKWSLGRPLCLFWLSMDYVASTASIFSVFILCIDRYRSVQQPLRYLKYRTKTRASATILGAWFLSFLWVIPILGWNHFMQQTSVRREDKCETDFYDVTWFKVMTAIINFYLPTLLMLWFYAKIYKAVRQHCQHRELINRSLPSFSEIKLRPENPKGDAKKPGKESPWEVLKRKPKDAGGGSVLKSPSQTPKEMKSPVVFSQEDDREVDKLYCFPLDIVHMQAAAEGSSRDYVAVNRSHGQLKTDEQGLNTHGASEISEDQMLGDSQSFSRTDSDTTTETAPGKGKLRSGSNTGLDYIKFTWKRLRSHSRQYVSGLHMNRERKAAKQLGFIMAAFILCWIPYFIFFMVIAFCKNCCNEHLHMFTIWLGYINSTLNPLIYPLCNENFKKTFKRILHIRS
T5 sequence (Q9Y5N1 whole entry, the tested form may be a part): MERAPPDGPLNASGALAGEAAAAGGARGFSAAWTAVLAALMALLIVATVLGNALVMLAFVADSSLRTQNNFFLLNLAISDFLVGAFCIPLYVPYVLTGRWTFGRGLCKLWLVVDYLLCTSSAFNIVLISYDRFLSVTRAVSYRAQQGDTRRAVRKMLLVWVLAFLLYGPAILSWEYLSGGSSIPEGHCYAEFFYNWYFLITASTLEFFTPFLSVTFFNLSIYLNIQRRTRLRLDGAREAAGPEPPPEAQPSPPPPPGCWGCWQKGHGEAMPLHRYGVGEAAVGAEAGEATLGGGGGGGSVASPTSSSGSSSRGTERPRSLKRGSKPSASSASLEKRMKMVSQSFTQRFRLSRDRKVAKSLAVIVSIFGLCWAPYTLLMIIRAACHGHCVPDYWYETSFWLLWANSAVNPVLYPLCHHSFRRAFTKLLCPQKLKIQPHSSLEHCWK
Chain of Histamine H1 receptor (Cavia porcellus, UniProt P31389) (P31389 whole entry): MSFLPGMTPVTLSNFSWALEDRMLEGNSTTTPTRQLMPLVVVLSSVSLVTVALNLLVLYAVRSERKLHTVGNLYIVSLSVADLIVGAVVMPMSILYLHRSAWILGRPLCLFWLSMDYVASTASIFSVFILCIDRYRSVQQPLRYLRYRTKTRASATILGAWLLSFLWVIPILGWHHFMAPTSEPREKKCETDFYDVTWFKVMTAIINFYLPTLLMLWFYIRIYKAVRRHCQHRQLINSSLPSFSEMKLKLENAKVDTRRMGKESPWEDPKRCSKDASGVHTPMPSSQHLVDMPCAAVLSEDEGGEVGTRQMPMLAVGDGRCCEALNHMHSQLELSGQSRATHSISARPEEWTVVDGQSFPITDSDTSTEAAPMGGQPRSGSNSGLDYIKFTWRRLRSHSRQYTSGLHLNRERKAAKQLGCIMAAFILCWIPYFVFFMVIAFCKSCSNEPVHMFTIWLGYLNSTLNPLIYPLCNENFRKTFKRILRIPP
T1 sequence (Q9H3N8 whole entry, the tested form may be a part): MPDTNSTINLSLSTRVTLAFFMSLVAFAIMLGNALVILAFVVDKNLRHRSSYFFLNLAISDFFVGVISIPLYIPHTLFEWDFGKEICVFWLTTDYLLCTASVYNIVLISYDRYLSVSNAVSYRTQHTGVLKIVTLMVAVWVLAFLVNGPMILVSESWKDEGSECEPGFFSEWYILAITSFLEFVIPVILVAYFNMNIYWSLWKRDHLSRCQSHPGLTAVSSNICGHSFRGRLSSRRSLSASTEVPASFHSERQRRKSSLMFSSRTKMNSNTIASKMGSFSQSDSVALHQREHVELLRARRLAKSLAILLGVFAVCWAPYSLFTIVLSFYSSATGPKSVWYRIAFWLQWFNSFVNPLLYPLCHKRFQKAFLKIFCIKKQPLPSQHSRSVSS

As to `N/C(=N\C(=O)Cc1c[nH]c2ccccc12)NCCCc1c[nH]cn1`, the Activity was 0.7 at Histamine H4 receptor [1]; 0 on Histamine H1 receptor [2]; 0.91 in test [4]; 0.81 on Histamine H2 receptor [9]; -0.15 at Histamine H3 receptor [11]. Also, the values for the EC50 on Histamine H4 receptor [3], at Histamine H2 receptor [5] and at Histamine H2 receptor [7] were 19.1 nM, 36.3 nM and 182 nM, respectively. The values for the pKb on Histamine H1 receptor [6] and on Histamine H3 receptor [8] were 5.68 and 7.51, respectively. Also, the Kb at Histamine H1 receptor [10] is 38.9 nM.
For `N/C(=N\C(=O)CCc1c[nH]c2ccccc12)NCCCc1c[nH]cn1`, the Activity on Histamine H4 receptor [1] is 0.45; on Histamine H1 receptor [2], 0.09; in test [4] it was 1.01; at Histamine H2 receptor [9], 0.77; on Histamine H3 receptor [11], -0.18. The 50% effective concentration (EC50) is 7.08 nM at Histamine H4 receptor [3], 81.3 nM on Histamine H2 receptor [5] and 77.6 nM at Histamine H2 receptor [7]. Further, the Kb was 437 nM on Histamine H2 receptor [12] and 398 nM at Histamine H1 receptor [10]. The pKb on Histamine H1 receptor [6] is 5.4; at Histamine H3 receptor [8], 7.57.
As to `CC(=O)NC(N)=NCCCc1cnc[nH]1`, the EC50 on Histamine H3 receptor [13] is 3.63 nM; at Histamine H4 receptor [3] it was 4.9 nM; on Histamine H1 receptor [14] it was 12900 nM; at Histamine H2 receptor [5] it was 724 nM; at Histamine H2 receptor [7], 813 nM. The results for the Kb on Histamine H2 receptor [12] and at Histamine H1 receptor [10] were 363 nM and 8510 nM, respectively.
As to `CC(C)C(=O)/N=C(\N)NCCCc1c[nH]cn1`, the Activity at Histamine H4 receptor [1] was 0.94; on Histamine H1 receptor [2], 0.35; in test [4] it was 0.98; at Histamine H2 receptor [9] it was 0.86; on Histamine H3 receptor [11], 0.26. The EC50 on Histamine H3 receptor [13] was 1.41 nM; on Histamine H4 receptor [3], 3.72 nM; on Histamine H1 receptor [14], 2570 nM; on Histamine H2 receptor [5], 110 nM; at Histamine H2 receptor [7], 110 nM. Also, the Kb on Histamine H2 receptor [12] is 302 nM; at Histamine H1 receptor [10] it was 7760 nM.
In the case of `N=C(N)NCCCc1c[nH]cn1`, the Activity on Histamine H4 receptor [1] came out at 0.83; at Histamine H2 receptor [9], 0.66; at Histamine H3 receptor [11], 0.69. At Histamine H1 receptor [6], the pKb is under 5.
On to `CN(CCC(=O)/N=C(\N)NCCCc1c[nH]cn1)C(=O)c1cc2ccccc2[nH]1`, for which the Activity came to 0.52 on Histamine H4 receptor [1], 0.84 in test [4], 0.68 at Histamine H2 receptor [9] and 0.3 on Histamine H3 receptor [11]. Further, the EC50 on Histamine H3 receptor [13] is 11 nM; at Histamine H4 receptor [3], 151 nM; at Histamine H2 receptor [5] it was 347 nM; on Histamine H2 receptor [7], 3550 nM. For the same molecule, the Kb at Histamine H1 receptor [10] was 3020 nM.
`CC(CC(=O)/N=C(\N)NCCCc1c[nH]cn1)c1ccccc1` (stereo not drawn): the Activity at Histamine H4 receptor [1] was 0.84; on Histamine H1 receptor [2], 0.35; in [4], 0.99; at Histamine H2 receptor [9], 0.87; on Histamine H3 receptor [11], 0.24. Also, the negative-log Kb (pKb) on Histamine H1 receptor [6] is under 4.9.
On to `N/C(=N\C(=O)CCCNC(=O)c1cc2ccccc2[nH]1)NCCCc1c[nH]cn1`, for which the Activity at Histamine H4 receptor [1] is -0.06; at Histamine H1 receptor [2], 0.16; in test [4], 0.9; at Histamine H2 receptor [9] it was 0.51; at Histamine H3 receptor [11] it was -0.18. For the same molecule, the EC50 was 30.2 nM at Histamine H2 receptor [5] and 490 nM at Histamine H2 receptor [7]. Also, the pKb at Histamine H1 receptor [6] is 4.96; at Histamine H3 receptor [8], 7.17; at Histamine H4 receptor [15], 7.02. Moreover, on Histamine H1 receptor [10], the Kb was 741 nM.
On to `S=C(NC1CCCCC1)N1CCC(c2cnc[nH]2)CC1`, for which the Activity at Histamine H4 receptor [1] was -0.95; at Histamine H3 receptor [11] it was -0.71.
On to `CC(=O)/N=C(\N)NCCCc1c[nH]cn1`, for which the Activity worked out at 1 at Histamine H4 receptor [1]; 0.24 at Histamine H1 receptor [2]; 0.83 in test [4]; 0.76 at Histamine H2 receptor [9]; 0.27 on Histamine H3 receptor [11]. Further, the Selectivity ratio in the test listed under Homo sapiens [16] is over 100; in the test listed under Homo sapiens [17] it was over 1000.
For `CC(CC(=O)NC(N)=NCCCc1cnc[nH]1)c1ccccc1` (stereo not drawn), the EC50 on Histamine H3 receptor [13] is 2.51 nM.
For `CCCC(=O)/N=C(\N)NCCCc1c[nH]cn1`, the Activity is 0.96 at Histamine H4 receptor [1]; 0.33 on Histamine H1 receptor [2]; 0.97 in test [4]; 0.77 on Histamine H2 receptor [9]; 0.37 on Histamine H3 receptor [11]. Further, the EC50 is 1.58 nM on Histamine H3 receptor [13]; 2.57 nM on Histamine H4 receptor [3]; 2190 nM at Histamine H1 receptor [14]; 141 nM at Histamine H2 receptor [5]; 186 nM at Histamine H2 receptor [7]. For the same molecule, the Kb is 407 nM at Histamine H2 receptor [12] and 3550 nM on Histamine H1 receptor [10].
As for `N/C(=N\C(=O)CNC(=O)c1cc2ccccc2[nH]1)NCCCc1c[nH]cn1`, the Activity was determined as 0.71 on Histamine H4 receptor [1], 0.51 at Histamine H2 receptor [9] and 0.45 at Histamine H3 receptor [11]. Besides, the EC50 at Histamine H3 receptor [13] was 15.8 nM; at Histamine H4 receptor [3], 28.2 nM; on Histamine H2 receptor [5] it was 955 nM.
Consider `N/C(=N\C(=O)CCNC(=O)c1cc2ccccc2[nH]1)NCCCc1c[nH]cn1`, for which the Activity at Histamine H4 receptor [1] worked out at 0.37; at Histamine H2 receptor [9], 0.33; on Histamine H3 receptor [11], 0.1. Besides, the EC50 is 33.1 nM at Histamine H4 receptor [3] and 83.2 nM at Histamine H2 receptor [5]. For the same molecule, the pKb on Histamine H3 receptor [8] came out at 7.17.
Regarding `N/C(=N\C(=O)c1cc2ccccc2[nH]1)NCCCc1c[nH]cn1`, the Activity at Histamine H4 receptor [1] was 0.21; at Histamine H1 receptor [2], 0.42; on Histamine H2 receptor [9] it was 0.87; at Histamine H3 receptor [11] it was -0.38. Further, the values for the EC50 on Histamine H1 receptor [14] and on Histamine H2 receptor [5] were 1700 nM and 288 nM, respectively. The pKb at Histamine H3 receptor [8] stood at 6.96; on Histamine H4 receptor [15], 6.43.
With `CCC(=O)/N=C(\N)NCCCc1c[nH]cn1`, the Activity was determined as 0.3 at Histamine H1 receptor [2], 0.94 in test [4], 0.83 on Histamine H2 receptor [9] and 0.39 at Histamine H3 receptor [11]. The half-maximal effective concentration (EC50) is 1.58 nM on Histamine H3 receptor [13], 3470 nM at Histamine H1 receptor [14] and 372 nM on Histamine H2 receptor [5]. Moreover, the Kb at Histamine H2 receptor [12] was 347 nM; on Histamine H1 receptor [10] it was 5130 nM.

As usually defined, the EC50 is the concentration at which the effect is half-maximal. A word on the pKb: it is the negative decadic logarithm of the Kb, by convention in mol/L.

Source of the values: ChEMBL document CHEMBL1153419 (J Med Chem, 2009).
